The subject of the assay is Human immunodeficiency virus 1. Put plainly: Antiviral activity against HIV1 infected in human MT4 cells assessed as inhibition of virus-induced cytopathicity. In kind it is functional, organism-based. As to conditions: Human immunodeficiency virus 1, MT4. In general terms: Damage to the host cells serves as the signal in cytopathic effect assays.

The source of these data is ChEMBL document CHEMBL1154495, “1,5-Benzothiazepine, a versatile pharmacophore: a review” (Eur J Med Chem, 2008).

In general, EC50 refers to the concentration giving half of the maximal effect. Regarding `CC(C)=CCn1cc2c(c1)S(=O)(=O)c1cc(Cl)ccc1NC2=O`, the EC50 worked out at 0.3 µM.
